The test system of data set [1] is human foreskin fibroblasts (HFFs). The data set can be described thus: HFF cytotoxicity dose response (cell counting kit-8). The following applies: for IC50: Homo sapiens, Fibroblast, 48 h, read-out: HFF IC50 (mean ± SEM). The protocol: (§1) Samples were further diluted by adding an equal volume of media containing 700 parasites. DMSO and […] of KAE609 were used as negative and positive controls, respectively. Assays were performed with a total of three technical replicates and two biological replicates. After incubation for 48 hours, 50 µL of media was removed, and plates were subjected to freezing and thawing. Following this, 10 µL of passive lysis buffer was added and plates were incubated for 15 min at room temperature. Finally, 30 µL of luciferase reagent was added, and the luminescence was measured immediately using a PHERAstar FSX. In parallel, cytotoxicity dose response was performed in the same fashion without the addition of parasites. Cell counting kit-8 reagent (GlpBio; Cat # GK10001) was added at a 1:10 dilution and incubated at 37°C, 5% CO2 for 1 hour. The absorbance was then measured at 450 nm using a PHERAstar FSX. The data management system CDD vault was used for curve fitting and IC50 determination.
A general note: Tetrazolium dyes change colour on reduction, which living cells bring about.

The test system of data set [2] is Toxoplasma gondii tachyzoites (RH88). The data set can be described thus: T. gondii fixed concentration screen at 5 µM (luciferase). Format: cell-based. The following applies: 48 hours. The method, then:
For the initial fixed concentration screening and IC50 determination in T. gondii, we utilized a luciferase expressing RH88 strain to quantify the number of live, actively replicating parasites. To construct this strain, the Fluc and DHFR selection markers had been integrated into the UPRT locus through CRISPR/Cas9, rendering the strain pyrimethamine-resistant ([6]). Screening was performed using a pure compound library provided by the University of Oklahoma Natural Products Discovery Group, containing 683 compounds derived primarily from fungal secondary metabolites. For purposes of testing, HFFs were grown in 96-well microtiter plates in preparation. The media we used to grow cells was referred to a D10 media that was composed of Dulbecco's Modified Eagle Medium (Thermo Fisher; Cat # 11995073), 10% Fetal Bovine Serum (Sigma-Aldrich; Cat # 12306C), 1 × non-essential amino acids (100 ×; Thermo Fisher; Cat # 11140050), HEPES buffer (1M; Fisher Scientific; Cat # SH3023701) at 0.4M, and 10 mg/mL of gentamicin (Fisher Scientific; Cat # 15710072). Compounds were then diluted to 10 µM in 100 µL of fresh D10 media. Each plate utilized artemisinin and DMSO vehicle controls. […] Finally, 100 µL of luciferase assay reagent (Promega; Cat# E1501) was added to each well, and luminescence was measured using a PHERAstar FSX plate reader (BMG Labtech, Germany).

Data set [3] shares this test system. Nature of the data set: microbe, parasite or virus in culture. The conditions noted are these: Toxoplasma gondii, 48 h, read-out: TgRH88 IC50 (mean ± SEM). The method, then:
For the initial fixed concentration screening and IC50 determination in T. gondii, we utilized a luciferase expressing RH88 strain to quantify the number of live, actively replicating parasites. To construct this strain, the Fluc and DHFR selection markers had been integrated into the UPRT locus through CRISPR/Cas9, rendering the strain pyrimethamine-resistant ([6]). Screening was performed using a pure compound library provided by the University of Oklahoma Natural Products Discovery Group, containing 683 compounds derived primarily from fungal secondary metabolites. For purposes of testing, HFFs were grown in 96-well microtiter plates in preparation. The media we used to grow cells was referred to a D10 media that was composed of Dulbecco's Modified Eagle Medium (Thermo Fisher; Cat # 11995073), 10% Fetal Bovine Serum (Sigma-Aldrich; Cat # 12306C), 1 × non-essential amino acids (100 ×; Thermo Fisher; Cat # 11140050), HEPES buffer (1M; Fisher Scientific; Cat # SH3023701) at 0.4M, and 10 mg/mL of gentamicin (Fisher Scientific; Cat # 15710072). Compounds were then diluted to 10 µM in 100 µL of fresh D10 media. Each plate utilized artemisinin and DMSO vehicle controls. To each well, 2,500 parasites per 100 µL of D10 media were added. Three technical replicates were then performed. After 48 hours, 160 µL of the D10 media was removed, and plates were subjected to freezing then thawing. Following this, 10 µL of the passive lysis buffer (Promega; Cat# E1910) was added and incubated at room temperature for 15 min. Finally, 100 µL of luciferase assay reagent (Promega; Cat# E1501) was added to each well, and luminescence was measured using a PHERAstar FSX plate reader (BMG Labtech, Germany).
as §1, with “For IC50 and cytotoxicity determination, we used 384 plates with confluent HFF cells. Compounds were serially diluted 3-fold with a starting concentration of 20 µM. Samples” for “Samples”

The nature of another data set: in vitro. The following applies: human. The protocol:
as §1

Data set [4] deals with Plasmodium falciparum (Dd2). The following applies: mean of duplicate or triplicate experiments; read-out: PfDd2 IC50; cited from earlier work.
The next data set relates to T. gondii. Also noted: method as in earlier work. The conditions noted are these: 100 µM; cited from earlier work.

Data on 5 compounds can be found in paper PMC10986609, “Identification of fungal natural products with potent inhibition in Toxoplasma gondii” (Microbiology Spectrum, 2024).

Broadly, the IC50 is the concentration needed to halve the response being measured. By inhibition is commonly meant the relative decrease from the control value, in per cent. Regarding `C[C@@H]1CC[C@H]2[C@@H](C)C(=O)O[C@@H]3O[C@@]4(C)CC[C@@H]1[C@]32OO4` [Artemisinin, reference compound], the results for the half-maximal inhibitory concentration (IC50) in data set [1] and in data set [3] were 10.5 µM and 702 ± 24.7 nM, respectively. Moreover, the inhibition at 5 µM in data set [2] was 94%.

`COC(=O)[C@@]12Oc3cc4c(c(O)c3C(=O)C1=C(O)CC[C@@H]2O)[C@@H]1C=C[C@@]2(C4)C(=O)c3cc(C)cc(O)c3C(O)=C2C1=O` [compound 130144, Xanthoquinodin A1]: the IC50 was 12.9 µM in data set [1], 12.9 ± 1.9 µM in the data set “in vitro”, 250 nM in data set [4] and 112 ± 74 nM in data set [3].

For the compound `COC(=O)[C@]12Oc3cc4c(c(O)c3C(=O)C1=C(O)CC[C@@H]2O)[C@@H]1C=C[C@@]2(C4)C(=O)c3cc(C)cc(O)c3C(O)=C2C1=O` [compound 130147, Xanthoquinodin A2], the IC50 was 12.3 µM in data set [1], 12.3 ± 0.3 µM in “in vitro”, 680 nM in data set [4] and 56.4 ± 12.8 nM in data set [3].

Regarding `CO[C@@H]1[C@H](OC(=O)/C=C/C=C/C=C/C=C/C(=O)O)CC[C@]2(CO2)[C@H]1[C@@]1(C)O[C@@H]1CC=C(C)C` [compound 150046, Fumagillin], the half-maximal inhibitory concentration (IC50) in data set [1] was > 20 µM; in “in vitro”, > 60 µM; in data set [4], 1310 nM; in data set [3], 58.8 ± 7.3 nM. For the same compound, the “toxicity to HFFs” value in data set [1] (highest concentration tested (60 µM)) is “lack of toxicity”.

With `CC(C)[C@H]1CC[C@@]2(O)COC(=O)[C@H]2[C@@H]1/C=C(\CO)C(=O)O` [hydroheptelidic acid, reference compound], in the data set on T. gondii, the “inhibition of T. gondii” value is “no activity”.
